Tests used:
[1] = test system: differentiated L6-myotubes; test: cAMP production relative to isoprenaline (Biological example 2 of WO 2019/053427); type: cell-based; conditions: 0.25 h, compound at 10 μM, activity relative to isoproterenol at 10 μM
In short: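 Differentiated L6 myotubes stimulated 15 min with test compound or isoprenaline, each at final 1×10^−5 M, in HBSS with 1% BSA, 5 mM HEPES, 1 mM IBMX, pH 7.4. cAMP production by the compound expressed relative to that induced by the same concentration of isoprenaline.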

[2] = test system: differentiated L6-myotubes; test: Glucose uptake screen (Biological example 1 of WO 2019/053427); type: cell-based; conditions: compound at 10 μM, activity relative to isoproterenol at 10 μM, read-out: Biological example 1 of WO 2019/053427 (GU)
In short: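 Rat L6 myoblasts were differentiated into myotubes over 7 days in 2% FBS, then serum-starved overnight. Cells were stimulated with 1×10^−5 M compound plus β2 antagonist ICI-118551 for 1 h 40 min and re-dosed for 20 min in glucose-free medium. Uptake of 50 nM ^3H-2-deoxyglucose over 10 min was counted after NaOH lysis.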

| SMILES | Emax at 10 µM [1] | Emax at 10 µM [2] |
| --- | --- | --- |
| CO[C@H]1CC[C@H](C[C@H]2CC[C@H]([C@@H](O)c3ccccc3F)N2)CC1 [Compound 338, (S)-[(2R,5R)-5-{[(1r,4R)-4-methoxycyclohexyl]methyl}-2-pyrrolidinyl](o-fluorophenyl)methanol] | < 25% | 50 to 75% |
| O[C@@H](CNCC[C@H]1CC[C@H](OCc2ccccc2)CC1)c1cccc(F)c1 [Compound 288, (R)-1-(m-fluorophenyl)-2-{2-[(1r,4R)-4-(benzyloxy)cyclohexyl]eth-ylamino}-1-ethanol] | < 25% | 25 to 50% |
| OC(CNCC1CCCCC1)c1ccccc1 (stereo not shown) [Compound 7, 2-[(cyclohexylmethyl)ami-no]-1-phenyl-1-ethanol] | < 25% | 25 to 50% |
| CCC[C@@H]1CC[C@H]([C@H](O)c2ccccc2Cl)N1 [Compound 148, (R)-[(2R,5R)-5-propyl-2-pyrrolidinyl](o-chlorophenyl)methanol] | < 25% | > 75% |
| CC12CCC([C@@H](O)c3cccc(F)c3)(CC1)N2 [Compound 178, (S)-(m-fluorophenyl)(4-methyl-7-azabicyclo[2.2.1]hept-1-yl)methanol] | < 25% | 25 to 50% |
| COC(=O)[C@H]1CC[C@@H](CC(C)(C)NC[C@H](O)c2cccc(F)c2)CC1 [Compound 327, methyl (1S,4s)-4-{2-[(R)-2-(m-fluorophenyl)-2-hydroxyethylamino]-2-methylpropyl}cyclohexanecarboxylate] | < 25% | > 75% |
| CCCCNC[C@H](O)c1cnc(N)s1 [Compound 75, (S)-1-(2-amino-1,3-thiazol-5-yl)-2-(butylamino)-1-ethanol] | < 25% | 25 to 50% |
| Oc1ccc(C(O)CNC23CC4CC(CC(C4)C2)C3)cc1 (stereo not shown) [Compound 11, p-[2-(1-adamantanylamino)-1-hydroxyethyl]phenol] | < 25% | 25 to 50% |
| CC12CCC([C@H](O)c3cncc(F)c3)(CC1)N2 [Compound 185, (R)-(5-fluoro-3-pyridyl)(4-methyl-7-azabicyclo[2.2.1]hept-1-yl)methanol] | < 25% | > 75% |
| CCOC(=O)CO[C@H]1CC[C@H](C(C)(C)NC[C@H](O)c2cccc(F)c2)CC1 [Compound 398, ethyl[(1R,4r)-4-{1-[(R)-2-(m-fluorophenyl)-2-hydroxyethylamino]-1-methylethyl}cycloehxyloxy]acetate] | < 25% | > 75% |
| CCC[C@@H]1CC[C@H]([C@@H](O)c2cccc(F)c2)N1 [Compound 126, (S)-[(2R,5R)-5-propyl-2-pyrrolidinyl](m-fluorophenyl)methanol] | < 25% | 25 to 50% |
| Oc1ccc(C(O)CNC2CCCC2)cc1 (stereo not shown) [Compound 10, p-[2-(cyclopentylamino)-1-hydroxyethyl]phenol] | < 25% | 50 to 75% |
| CCC[C@H]1CCC[C@@H]([C@H](O)c2cccc(O)c2)N1 [Compound 122, (R)-[(2S,6S)-6-propyl-2-piperidyl](m-hydroxyphenyl)methanol] | < 25% | 50 to 75% |
| CCC[C@@H]1CCC[C@H]([C@@H](O)c2cccc(O)c2)N1 [Compound 137, (S)-[(2R,6R)-6-propyl-2-piperidyl](m-hydroxyphenyl)methanol] | < 25% | 25 to 50% |
| CCC[C@H]1CCC[C@H]([C@H](O)c2cncc(F)c2)N1 [Compound 140, (R)-[(2R,6S)-6-propyl-2-piperidyl](5-fluoro-3-pyridyl)methanol] | < 25% | < 25% |
| COC(=O)[C@H]1CC[C@H](CC(C)(C)NC[C@H](O)c2cccc(F)c2)CC1 [Compound 353, methyl (1R,4r)-4-{2-[(R)-2-(m-fluorophenyl)-2-hydroxyethylamino]-2-methylpropyl}cyclohexanecarboxylate] | < 25% | > 75% |
| O[C@@H](c1cccc(F)c1)C12CCC(CCCc3ccccc3)(CC1)N2 [Compound 535, (S)-(m-fluorophenyl){4-(3-phenylpropyl)-7-azabicyclo[2.2.1]hept-1-yl}methanol] | < 25% | 25 to 50% |
| CC1(C)CCC[C@H]([C@H](O)c2cccc(O)c2)N1 [Compound 104, (R)-[(R)-6,6-dimethyl-2-piperidyl](m-hydroxyphenyl)methanol] | < 25% | 25 to 50% |
| CCC[C@@H]1CCC[C@H]([C@H](O)c2ccc(F)cc2)N1 [Compound 94, (R)-[(2R,6R)-6-propyl-2-piperidyl](p-fluorophenyl)methanol] | < 25% | 50 to 75% |

| SMILES | Emax at 10 µM [1] | Emax at 10 µM [2] |
| --- | --- | --- |
| O[C@H](c1cccc(F)c1)C12CCC(CCc3ccc(Cl)cc3)(CC1)N2 [Compound 528, (R)-{4-[2-(p-chlorophenyl)ethyl]-7-azabicyclo[2.2.1]hept-1-yl}(m-fluorophenyl)methanol] | < 25% | < 25% |
| CCC[C@@H]1CCC[C@@H]([C@@H](O)c2cccc(Cl)c2)N1 [Compound 114, (S)-[(2S,6R)-6-propyl-2-piperidyl](m-chlorophenyl)methanol] | < 25% | 25 to 50% |
| CCC(C)NCC(O)c1ccc(O)cc1 (stereo not shown) [Compound 5, 2-(sec-butylamino)-1-(p-hydroxyphenyl)-1-ethanol] | < 25% | 50 to 75% |
| CCCCNC[C@H](O)c1cnc(N)nc1 [Compound 89, (R)-1-(2-amino-5-pyrimidinyl)-2-(butylamino)-1-ethanol] | < 25% | 50 to 75% |
| O=C(N[C@H]1CC[C@@H](CNC[C@H](O)c2cccc(F)c2)CC1)c1ccccc1 [Compound 316, N-[(1S,4s)-4-{[(R)-2-(m-fluorophenyl)-2-hydroxyethylamino]methyl}cyclohexyl]benzamide] | < 25% | 50 to 75% |
| C[C@H]1CC[C@@H]([C@@H](O)c2ccccc2)N1 (racemic) [Compound 39, Racemic mixture of (R)-[(2R,5R)-5-methyl-2-pyrrolidinyl]phenylmeth-anol and (S)-[(2S,5S)-5-methyl-2-pyrrolidinyl]phenylmeth-anol] | < 25% | 50 to 75% |
| CO[C@@H]1CCC[C@H](C(C)(C)NC[C@H](O)c2cncc(F)c2)C1 [Compound 257, (R)-2-{1-[(1S,3R)-3-methoxycyclohexyl]-1-methylethylamino}-1-(5-fluoro-3-pyridyl)-1-ethanol] | < 25% | 50 to 75% |
| CCCCNCC(O)c1cc(F)cc(F)c1 (stereo not shown) [Compound 55, 2-(butylamino)-1-(3,5-difluorophenyl)-1-ethanol] | < 25% | 50 to 75% |
| O[C@@H](CNCC[C@H]1CC[C@H](O)CC1)c1cncc(F)c1 [Compound 294, (R)-1-(5-fluoro-3-pyridyl)-2-{2-[(1r,4R)-4-hydroxycyclohexyl]ethylamino}-1-ethanol] | < 25% | 25 to 50% |
| CC(C)(C[C@H]1CC[C@@H](N)CC1)NC[C@H](O)c1cncc(F)c1 [Compound 466, (R)-2-{1,1-dimethyl-2-[(1s,4S)-4-aminocyclohexyl]ethylamino}-1-(5-fluoro-3-pyridyl)-1-ethanol] | < 25% | 50 to 75% |
| CC1(C)C[C@@H]([C@H](O)c2cncc(F)c2)N1 [Compound 216, (R)-[(S)-4,4-dimethyl-2-azetidinyl](5-fluoro-3-pyridyl)methanol] | < 25% | 25 to 50% |
| CCC[C@H]1CCC[C@@H]([C@@H](O)c2cccc(O)c2)N1 [Compound 121, (S)-[(2S,6S)-6-propyl-2-piperidyl](m-hydroxyphenyl)methanol] | < 25% | > 75% |
| CC1(C)CCC[C@H]([C@@H](O)c2cccc(F)c2)N1 [Compound 101, (S)-[(R)-6,6-dimethyl-2-piperidyl](m-fluorophenyl)methanol] | < 25% | 25 to 50% |
| CCCC(C)NCC(O)c1ccc(O)c(Cl)c1 (stereo not shown) [Compound 19, 1-(3-chloro-4-hydroxyphenyl)-2-(1-methylbutylamino)-1-ethanol] | < 25% | 25 to 50% |
| CC1(C)CC[C@H]([C@H](O)c2cccc(Cl)c2)N1 [Compound 154, (R)-[(R)-5,5-dimethyl-2-pyrrolidinyl](m-chlorophenyl)methanol] | < 25% | > 75% |
| CC(=O)N[C@H]1CC[C@H](CC(C)(C)NC[C@H](O)c2cccc(F)c2)CC1 [Compound 383, N-[(1R,4r)-4-{2-[(R)-2-(m-fluorophenyl)-2-hydroxyethylamino]-2-methylpropyl}cyclohexyl]acetamide] | 25 to 50% | > 75% |
| CC12CC(C1)[C@@H]([C@@H](O)c1ccccc1F)N2 [Compound 211, (S)-{(S)-1-methyl-2-azabicyclo[2.1.1]hex-3-yl}(o-fluorophenyl)methanol] | < 25% | > 75% |
| CC12CC(C1)[C@H]([C@@H](O)c1cccc(Cl)c1)N2 [Compound 208, (S)-{(R)-1-methyl-2-azabicyclo[2.1.1]hex-3-yl}(m-chlorophenyl)methanol] | < 25% | 50 to 75% |
| CCCCNC[C@H](O)c1csc(N)n1 [Compound 71, (S)-1-(2-amino-1,3-thiazol-4-yl)-2-(butylamino)-1-ethanol] | < 25% | 25 to 50% |
